In the supplement of paper PMC10307832:

Columns and labels:
Test in all cases: relative viability (nuclei count vs DMSO), 5 days (fraction); higher = more cells survive
[1] = compound: Nc1ccn([C@@H]2O[C@H](CO)[C@@H](O)C2(F)F)c(=O)n1 [Gemcitabine]
In short: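 Viability was read as treated-well nuclei divided by vehicle-well nuclei, using the median across plates. Lung cancer cell lines in 1536-well plates were kept overnight at 37 °C, pinned with five √10-spaced library-drug doses, and after 5 days were Hoechst-stained, imaged at 4× and counted in MetaXpress. Plates passed only with control CV below 25% and at least one doubling.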

[2] = compound: Nc1ccn([C@@H]2O[C@H](CO)[C@@H](O)C2(F)F)c(=O)n1 [Gemcitabine] + CC1(C)CCC(c2ccc(Cl)cc2)=C(CN2CCN(c3ccc(C(=O)NS(=O)(=O)c4ccc(N[C@H](CCN5CCOCC5)CSc5ccccc5)c(S(=O)(=O)C(F)(F)F)c4)cc3)CC2)C1 [Navitoclax] (partner 0.5 µM)
In short: (§1)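 A single step with final 0.05% Triton X-100, 1% formaldehyde and 1 ug/ml Hoechst fixed the cells and stained nuclei 5 days after treatment. Lung cancer cell lines in 1536-well plates had been treated by pin tool the day after seeding with one drug alone or a fixed anchor-drug dose plus five library-drug doses (not always all listed) in √10 steps, and nuclei were counted on 4× images. Relative viability is the ratio of nuclei in treated wells to nuclei in vehicle wells, taken as the median of duplicate plates.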

[3] = compound: Nc1ccn([C@@H]2O[C@H](CO)[C@@H](O)C2(F)F)c(=O)n1 [Gemcitabine] + Cc1cc(Nc2cc(N3CCN(C)CC3)nc(Sc3ccc(NC(=O)C4CC4)cc3)n2)n[nH]1 [Tozasertib] (partner 0.1 µM)
In short: as §1

[4] = compound: Nc1ccn([C@@H]2O[C@H](CO)[C@@H](O)C2(F)F)c(=O)n1 [Gemcitabine] + N=C(N)NC(=N)NCCc1ccccc1 [Phenformin] (partner 250 µM)
In short: as §1

| Cell Line | relative viability ([1]; 0.001 µM) | relative viability ([1]; 0.003162 µM) | relative viability ([1]; 0.01 µM) | relative viability ([1]; 0.03162 µM) | relative viability ([1]; 0.1 µM) | relative viability ([2]; first compound 0.001 µM) | relative viability ([2]; first compound 0.003162 µM) | relative viability ([2]; first compound 0.01 µM) | relative viability ([2]; first compound 0.03162 µM) | relative viability ([2]; first compound 0.1 µM) | relative viability ([3]; first compound 0.001 µM) | relative viability ([3]; first compound 0.003162 µM) | relative viability ([3]; first compound 0.01 µM) | relative viability ([3]; first compound 0.03162 µM) | relative viability ([3]; first compound 0.1 µM) | relative viability ([4]; first compound 0.001 µM) | relative viability ([4]; first compound 0.003162 µM) | relative viability ([4]; first compound 0.01 µM) | relative viability ([4]; first compound 0.03162 µM) | relative viability ([4]; first compound 0.1 µM) |
| --- | --- | --- | --- | --- | --- | --- | --- | --- | --- | --- | --- | --- | --- | --- | --- | --- | --- | --- | --- | --- |
| NCI-H1651 | 0.987 | 0.955 | 0.929 | 0.285 | 0.141 | 1.07 | 1.16 | 0.928 | 0.204 | 0.0844 | 0.621 | 0.683 | 0.693 | 0.177 | 0.0714 | 0.392 | 0.359 | 0.335 | 0.151 | 0.155 |
| NCI-H1666 | 0.965 | 1 | 0.909 | 0.61 | 0.412 | 0.872 | 0.836 | 0.393 | 0.281 | 0.275 | 0.622 | 0.615 | 0.582 | 0.387 | 0.337 | 0.559 | 0.476 | 0.383 | 0.378 | 0.355 |
| NCI-H1734 | 0.984 | 0.856 | 0.263 | 0.121 | 0.125 | 0.843 | 0.562 | 0.195 | 0.106 | 0.0836 | 0.243 | 0.264 | 0.125 | 0.104 | 0.105 | 0.337 | 0.29 | 0.163 | 0.0972 | 0.106 |
| NCI-H1755 | 0.97 | 1 | 0.943 | 0.633 | 0.305 | 0.925 | 1.04 | 0.827 | 0.256 | 0.153 | 0.594 | 0.564 | 0.411 | 0.321 | 0.252 | 0.582 | 0.651 | 0.482 | 0.4 | 0.336 |
| NCI-H1793 | 1.02 | 1.04 | 0.565 | 0.168 | 0.146 | 0.488 | 0.474 | 0.169 | 0.216 | 0.151 | 0.421 | 0.507 | 0.202 | 0.133 | 0.12 | 0.38 | 0.324 | 0.223 | 0.166 | 0.13 |
| NCI-H1915 | 0.981 | 1.03 | 0.98 | 0.865 | 0.475 | 0.768 | 0.789 | 0.785 | 0.797 | 0.364 | 0.461 | 0.462 | 0.397 | 0.317 | 0.193 | 0.353 | 0.356 | 0.344 | 0.279 | 0.214 |
| NCI-H1944 | 1 | 0.995 | 0.821 | 0.496 | 0.235 | 1.11 | 1.01 | 0.897 | 0.692 | 0.209 | 0.253 | 0.266 | 0.251 | 0.188 | 0.105 | 0.225 | 0.193 | 0.169 | 0.161 | 0.132 |
| NCI-H1975 | 0.984 | 1.1 | 0.648 | 0.216 | 0.174 | 1.07 | 1.14 | 0.463 | 0.228 | 0.179 | 0.892 | 0.561 | 0.256 | 0.132 | 0.0954 | 0.416 | 0.268 | 0.176 | 0.129 | 0.122 |
| NCI-H1993 | 0.974 | 0.958 | 0.604 | 0.441 | 0.558 | 1.1 | 1.01 | 0.583 | 0.673 | 0.513 | 0.54 | 0.633 | 0.619 | 0.494 | 0.531 | 0.461 | 0.485 | 0.439 | 0.421 | 0.407 |
| NCI-H2009 | 1.01 | 0.746 | 0.24 | 0.167 | 0.114 | 1.25 | 0.87 | 0.366 | 0.0871 | 0.0975 | 0.854 | 0.65 | 0.24 | 0.163 | 0.11 | 0.496 | 0.317 | 0.198 | 0.175 | 0.146 |
| NCI-H2023 | 1.03 | 0.92 | 0.444 | 0.103 | 0.0642 | 0.986 | 0.794 | 0.667 | 0.135 | 0.0835 | 0.409 | 0.385 | 0.233 | 0.101 | 0.0648 | 0.35 | 0.327 | 0.192 | 0.0945 | 0.0668 |
| NCI-H2085 | 1.05 | 0.954 | 0.852 | 0.792 | 0.439 | 1.1 | 1.15 | 0.848 | 0.646 | 0.484 | 0.729 | 0.858 | 0.731 | 0.562 | 0.443 | 0.79 | 0.61 | 0.422 | 0.282 | 0.271 |
| NCI-H2087 | 1.04 | 0.852 | 0.349 | 0.132 | 0.118 | 1.11 | 0.813 | 0.397 | 0.156 | 0.153 | 0.31 | 0.204 | 0.139 | 0.0946 | 0.0735 | 0.455 | 0.231 | 0.149 | 0.108 | 0.113 |
| NCI-H2126 | 0.971 | 1 | 0.906 | 0.77 | 0.458 | 0.821 | 0.815 | 0.812 | 0.728 | 0.369 | 0.866 | 0.802 | 0.756 | 0.471 | 0.245 | 0.504 | 0.422 | 0.399 | 0.358 | 0.216 |
| NCI-H2170 | 0.99 | 0.999 | 0.86 | 0.498 | 0.158 | 0.72 | 0.52 | 0.458 | 0.183 | 0.162 | 0.824 | 0.735 | 0.469 | 0.154 | 0.134 | 0.426 | 0.424 | 0.363 | 0.196 | 0.144 |
